Laboratory results taken from patent publication US20090111895A1, “ENHANCED DIALDEHYDE DISINFECTANT AND STERILIZATION FORMULATIONS” (Ethicon, Inc., priority 2007, published 2009).

How the values were obtained:
[1] = system: Bacillus subtilis (ATCC 19659) spores; experiment: Bacillus subtilis sporicidal suspension test; format: cell-based; conditions: 20° C.; for sporicidal activity (in words): Table 1 results; for sporicidal activity (in words) / enhancement of the sporicidal activity of ortho-phthalaldehyde (in words): 5 hours; for enhancement of the sporicidal activity of ortho-phthalaldehyde (in words): Tables 2-4, 0.3 wt. % ortho-phthalaldehyde
Description: The phrase “Bacillus subtilis sporicidal suspension test”, when used in the appended claims means a determination of the sporicidal activity of a dialdehyde calculated as a log reduction of Bacillus subtilis bacterial spores. The test is performed according to Example 1 by treatment of Bacillus subtilis bacterial spores with a formulation consisting of the dialdehyde to be tested in water. The log10 reduction/mL is calculated from log N0−log Ni where N0 represent the number of organisms (cfu/mL) at time zero; and Ni represent the number of surviving organism (cfu/mL) at designated exposure time.
Several ortho-phthalaldehyde based germicidal solutions were tested to determine their effectiveness in killing Bacillus subtilis (ATCC 19659) spores using the Bacillus subtilis sporicidal suspension test.
For preparation of the inoculating spore test suspension, a 1 ml aliquot of the spore harvest was serial diluted with sterile water to produce a spore suspension of approximately 1×10^7 cfu ml.
Test solutions of ortho-phthalaldehyde/acetate were prepared by mixing acetate with CIDEX® OPA (which is a 0.55% solution of ortho-phthalaldehyde in water around pH 7.3, commercially available from Advanced Sterilization Products, a Johnson & Johnson Company) and diluted to levels indicated in Table 1.
The 1 ml aliquots of spore suspensions were exposed to 9 ml of ortho-phthalaldehyde solution at 20° C. The pHs of the tested solutions were adjusted to 7.3-7.5.
The experiments were performed using the suspension test, which involved adding 1 ml of 10^7 spores to sterile test tubes containing 9 ml of the challenge solution. The resulting test sample spore concentration was 10^6 cfu /ml. The tubes containing the test suspension/spores were vortex briefly to allow for mixing of the solution/spores. At the end of each of the appropriate exposure time at 20° C., 1 ml aliquots of the solution/spores mixture were aseptically transferred to sterile filtration units containing 0.45μ membrane filters with 100 ml of neutralizer solution (1% w/v glycine solution). The solutions were filtered and the membrane filters were rinsed again with 100 ml of neutralizers solution. The membrane filters were then individually transferred onto the surface of commercially available sterile Tryptic Soy Agar plates. The plates were incubated at 37° C. for 48 hours. After incubation, the number of survivors were determined for each test sample/exposure time.
The log10 reduction/mL is calculated from log N0−log Ni where N0 represent the number of organism (cfu/mL) at time zero; and Ni represent the number of surviving organism (cfu/mL) at designated exposure time.
In addition to acetate, several mixtures of ortho-phthalaldehyde with different carboxylates such as chloroacetate and propionate were also tested using the protocol described above in Example 1.
Benzoate was evaluated for its ability to enhance the sporicidal activity of ortho-phthalaldehyde using the protocol described above in Example 1. The pHs of all solutions were adjusted to neutral, 7.3-7.5.
Spore suspension tests with five germicide solutions containing 2.4% glutaraldehyde with various amounts of acetate ranging from 0 to 7% were conducted at 20° C. for 4 hours with Bacillus using the protocol described above in Example 1. The pHs of the solutions were adjusted to 8.2-8.9, which is the typical pH range for glutaraldehyde disinfecting solutions.

Bacillus subtilis spores = experiment: Time kill assay; format: cell-based; conditions: Table 6; 0.3% ortho-phthalaldehyde, 20° C.
Description: Test solutions were prepared by mixing acetate with ortho-phthalaldehyde (if applicable) and the solutions were adjusted to pH 7.2. The solutions were then challenged with 10^6 per ml of Bacillus subtilis spores at 20° C. (room temperature). At each predetermined exposure time, samples from each of the test solutions were tested/assayed for survivors.

spores of B. subtilis = conditions: cited from earlier work

| SMILES | sporicidal activity (in words) [1] | enhancement of the sporicidal activity of ortho-phthalaldehyde (in words) [1] | other results |
| --- | --- | --- | --- |
| CC(=O)[O-].[K+] [acetate, potassium acetate] | does not have significant sporicidal activity | – | enhancement of the sporicidal activity of glutaraldehyde (in words) ([1]; Table 5, 2.4% glutaraldehyde, 4 hours): the sporicidal activity of glutaraldehyde is significantly enhanced; enhancement of the sporicidal activity of ortho-phthalaldehyde (in words) (Bacillus subtilis spores): the sporicidal activity of ortho-phthalaldehyde is significantly enhanced |
| O=C(O)c1ccccc1 [benzoate] | – | enhances ortho-phthalaldehyde sporicidal efficacy when the benzoate concentration is above about 3% | – |
| O=C(O)CCl [chloroacetate] | – | significantly enhance the sporicidal activity of ortho-phthalaldehyde | – |
| O=Cc1ccccc1C=O [ortho-phthalaldehyde, reference compound] | does not have significant sporicidal activity | – | activity against spores of B. subtilis (in words) (spores of B. subtilis): relatively ineffective against spores of B. subtilis |
| CCC(=O)O [propionate] | – | significantly enhance the sporicidal activity of ortho-phthalaldehyde | – |
